Results: PubChem BioAssay AID330 (DTP/NCI, 2004)
Several values for one entry are separate records, joined by “and”; a condition that tells them apart may be missing. Equal values may be shown once. Inconclusive results and toxic doses are left out. Rule for the calls: active = survival T/C of 150% or more; inactive = T/C below 125% in these data.

Tested on: P388 leukemia ip, CD2F1 mice, survival T/C
Experiment: NCI In Vivo Anticancer Drug Screen. Data for tumor model P388 Leukemia (intraperitoneal) in CD2F1 (CDF1) mice
Settings: endpoint: median survival time, higher = longer survival
Outline: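 Mice carrying the transplanted tumor received test compound or vehicle. Survival was recorded in each group, and the value is the treated-group measurement divided by that of the vehicle-treated control group.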

[1] = dose: 50.0 mg/kg/injection, schedule: Q01DX009 (ip), vehicle: Klucel (hydroxypropylcellulose) (HPC)
[2] = dose: 100.0 mg/kg/injection, schedule: Q01DX009 (ip), vehicle: Klucel (hydroxypropylcellulose) (HPC)
[3] = dose: 200.0 mg/kg/injection, schedule: Q01DX009 (ip), vehicle: Klucel (hydroxypropylcellulose) (HPC)
[4] = dose: 100.0 mg/kg/injection, schedule: Q01DX001 (ip), vehicle: saline
[5] = dose: 200.0 mg/kg/injection, schedule: Q01DX001 (ip), vehicle: saline
[6] = dose: 400.0 mg/kg/injection, schedule: Q01DX001 (ip), vehicle: saline
[7] = dose: 400.0 mg/kg/injection, schedule: Q01DX009 (ip), vehicle: saline with Tween-80
[8] = dose: 25.0 mg/kg/injection, schedule: Q01DX009 (ip), vehicle: saline with Tween-80
[9] = dose: 50.0 mg/kg/injection, schedule: Q01DX009 (ip), vehicle: saline with Tween-80
[10] = dose: 100.0 mg/kg/injection, schedule: Q01DX009 (ip), vehicle: saline with Tween-80
[11] = dose: 200.0 mg/kg/injection, schedule: Q01DX009 (ip), vehicle: saline with Tween-80
[12] = dose: 50.0 mg/kg/injection, schedule: Q01DX005 (ip), vehicle: saline with Tween-80
[13] = dose: 100.0 mg/kg/injection, schedule: Q01DX005 (ip), vehicle: saline with Tween-80
[14] = dose: 200.0 mg/kg/injection, schedule: Q01DX005 (ip), vehicle: saline with Tween-80
[15] = dose: 12.5 mg/kg/injection, schedule: Q01DX009 (ip), vehicle: saline with Tween-80

Measured: T/C

C=Cc1cc(C)ccc1C(=O)OCCCCCCCCCCCC
inactive: [1] 98 % of control | [2] 101 % of control | [3] 98 % of control

N#CCCCCCCCCCCCCCC1C=CCC1 (stereo not drawn)
inactive: [4] 106 % of control | [5] 99 % of control | [6] 101 % of control

CCSc1nc2ccc(CN3C(=O)c4ccccc4C3=O)cc2s1
inactive: [1] 92 % of control | [2] 89 % of control | [3] 86 % of control

O=c1[nH]c2ccccc2[nH]1
inactive: [1] 114 % of control and 98 % of control | dose: 50.0 mg/kg/injection, schedule: Q01DX009 (ip), vehicle: suspension in saline 99 % of control and 90 % of control | [2] 107 % of control and 98 % of control | dose: 100.0 mg/kg/injection, schedule: Q01DX009 (ip), vehicle: suspension in saline 100 % of control | [3] 117 % of control | dose: 200.0 mg/kg/injection, schedule: Q01DX009 (ip), vehicle: suspension in saline 101 % of control and 96 % of control | dose: 400.0 mg/kg/injection, schedule: Q01DX009 (ip), vehicle: suspension in saline 101 % of control and 88 % of control

S=c1nc[nH]c2c1ncn2C1C=CCCC1 (stereo not drawn)
inactive: dose: 100.0 mg/kg/injection, schedule: Q04DX003 (ip), vehicle: saline with Tween-80 90 % of control | dose: 176.0 mg/kg/injection, schedule: Q01DX009 (ip), vehicle: saline with Tween-80 100 % of control | dose: 200.0 mg/kg/injection, schedule: Q04DX003 (ip), vehicle: saline with Tween-80 90 % of control | dose: 264.0 mg/kg/injection, schedule: Q01DX009 (ip), vehicle: saline with Tween-80 95 % of control | [7] 118 % of control | dose: 400.0 mg/kg/injection, schedule: Q04DX003 (ip), vehicle: saline with Tween-80 90 % of control

CCCCCCC(=O)/C=C/c1cc(Cl)cc(Cl)c1O
inactive: [1] 105 % of control | [2] 91 % of control | [3] 101 % of control

CCCC12C=C(OC)C(=O)C=C1OC(c1ccc3c(c1)OCO3)C2C (stereo not drawn)
inactive: dose: 8.75 mg/kg/injection, schedule: Q01DX005 (ip), vehicle: Klucel (hydroxypropylcellulose) (HPC) 106 % of control | dose: 17.5 mg/kg/injection, schedule: Q01DX005 (ip), vehicle: Klucel (hydroxypropylcellulose) (HPC) 104 % of control | dose: 35.0 mg/kg/injection, schedule: Q01DX005 (ip), vehicle: Klucel (hydroxypropylcellulose) (HPC) 104 % of control

O=NNc1ccc(Cl)nc1
inactive: dose: 3.12 mg/kg/injection, schedule: Q01DX009 (ip), vehicle: saline 109 % of control | dose: 6.25 mg/kg/injection, schedule: Q01DX009 (ip), vehicle: saline 110 % of control | dose: 12.5 mg/kg/injection, schedule: Q01DX009 (ip), vehicle: saline 106 % of control | dose: 25.0 mg/kg/injection, schedule: Q01DX009 (ip), vehicle: saline 106 % of control | dose: 50.0 mg/kg/injection, schedule: Q01DX009 (ip), vehicle: saline 107 % of control

O=C1CCCCCC1Cc1cc(O)c(CC2CCCCCC2=O)cc1O (stereo not drawn)
inactive: [8] 96 % of control | [9] 93 % of control | [10] 98 % of control | [11] 94 % of control

O=S1(=O)N=C(Sc2nc3ccccc3s2)c2ccccc21
inactive: [12] 102 % of control | [13] 107 % of control | [14] 117 % of control

CC/S(=N\S(=O)(=O)c1ccc(C)cc1)c1cccc[n+]1[O-] (stereo not drawn)
inactive: dose: 60.0 mg/kg/injection, schedule: Q01DX005 (ip), vehicle: saline with Tween-80 100 % of control | dose: 120.0 mg/kg/injection, schedule: Q01DX005 (ip), vehicle: saline with Tween-80 110 % of control | dose: 240.0 mg/kg/injection, schedule: Q01DX005 (ip), vehicle: saline with Tween-80 100 % of control

CCOC(=O)C(Cc1ccccc1)P(=O)(OCC)OCC (stereo not drawn)
inactive: [4] 95 % of control | [5] 100 % of control | [6] 91 % of control

COc1cc(NC(C)=O)c(OC)cc1N
inactive: dose: 25.0 mg/kg/injection, schedule: Q04DX002 (ip), vehicle: saline 104 % of control | dose: 50.0 mg/kg/injection, schedule: Q04DX002 (ip), vehicle: saline 98 % of control

COc1ccccc1N=Nc1cccc[c]1[Hg][Cl]
inactive: dose: 9.0 mg/kg/injection, schedule: Q01DX009 (ip), vehicle: saline 107 % of control and 113 % of control and 118 % of control | dose: 18.0 mg/kg/injection, schedule: Q01DX009 (ip), vehicle: saline 114 % of control and 119 % of control | dose: 36.0 mg/kg/injection, schedule: Q01DX009 (ip), vehicle: saline 102 % of control and 113 % of control

CC1CCC(C(C)C)C2(C1)OC(CCl)CS2 (stereo not drawn)
inactive: [15] 106 % of control | [8] 114 % of control | [9] 114 % of control and 124 % of control

[CH3][Sn]([CH3])([n]1ccnc1)[n]1ccnc1
inactive: dose: 6.25 mg/kg/injection, schedule: Q01DX005 (ip), vehicle: Klucel (hydroxypropylcellulose) (HPC) 120 % of control | dose: 12.5 mg/kg/injection, schedule: Q01DX005 (ip), vehicle: Klucel (hydroxypropylcellulose) (HPC) 119 % of control | dose: 50.0 mg/kg/injection, schedule: Q01DX005 (ip), vehicle: Klucel (hydroxypropylcellulose) (HPC) 120 % of control

C=CC/C(=N\OS(=O)(=O)O)SC1OC(CO)C(O)C(O)C1O (stereo not drawn)
inactive: dose: 25.0 mg/kg/injection, schedule: Q01DX005 (ip), vehicle: saline 92 % of control and 98 % of control | dose: 50.0 mg/kg/injection, schedule: Q01DX005 (ip), vehicle: saline 102 % of control [middle of 4 runs] | dose: 100.0 mg/kg/injection, schedule: Q01DX005 (ip), vehicle: saline 101 % of control and 102 % of control and 104 % of control | dose: 200.0 mg/kg/injection, schedule: Q01DX005 (ip), vehicle: saline 100 % of control and 101 % of control and 98 % of control

CCOC(=O)N1CCN(CCCCCOc2ccccc2C2CCCCC2)CC1
inactive: [9] 110 % of control | [10] 108 % of control | [11] 124 % of control | [7] 115 % of control

NS(=O)(=O)c1ccc(N=NC2Sc3nc4ccccc4n3C2=O)cc1 (stereo not drawn)
inactive: dose: 60.0 mg/kg/injection, schedule: Q01DX005 (ip), vehicle: Klucel (hydroxypropylcellulose) (HPC) 94 % of control | dose: 120.0 mg/kg/injection, schedule: Q01DX005 (ip), vehicle: Klucel (hydroxypropylcellulose) (HPC) 91 % of control

Brc1ccc(/C=C/c2ccncc2)cc1
inactive: [12] 104 % of control | [13] 99 % of control | [14] 93 % of control

CC(C)SC(=S)S(=O)(=O)c1ccc(Cl)cc1
inactive: [8] 104 % of control and 110 % of control | [9] 107 % of control (2×) and 111 % of control | [10] 104 % of control and 114 % of control and 121 % of control

O=C(O)C(=O)c1ccccc1
inactive: dose: 50.0 mg/kg/injection, schedule: Q04DX003 (ip), vehicle: saline 100 % of control | dose: 100.0 mg/kg/injection, schedule: Q04DX003 (ip), vehicle: saline 105 % of control | dose: 200.0 mg/kg/injection, schedule: Q04DX003 (ip), vehicle: saline 100 % of control

CCOC(=O)c1ccc(NC(=O)Nc2cnccn2)cc1
inactive: [15] 92 % of control | [8] 93 % of control | [9] 86 % of control and 91 % of control | [10] 95 % of control | [11] 90 % of control

CCCCCCCCCCCCCC(=O)Oc1ccc[nH]c1=O
inactive: [12] 91 % of control | [13] 90 % of control | [14] 90 % of control | dose: 400.0 mg/kg/injection, schedule: Q01DX005 (ip), vehicle: saline with Tween-80 98 % of control

NNc1ncnc2ccc(Cl)cc12
inactive: [1] 111 % of control | [2] 111 % of control | [3] 113 % of control
